Some test systems named below: Streptococcus pneumoniae; Acinetobacter baumannii; Klebsiella pneumoniae; Pseudomonas aeruginosa; Enterococcus faecium.
Holding throughout (experiment): ≥ marks a high value that may be exact or a test limit, other limits are often not marked, values filed in µg/mL are converted to µM
The test system of experiment [1] is Listeria monocytogenes EGD.
The test system of experiment [2] is Staphylococcus aureus ATCC 25923.
Experiment [3] concerns Escherichia coli ATCC 25922.
Experiment [4] deals with Pseudomonas aeruginosa ATCC 27853.
Experiment [5] concerns Staphylococcus aureus ATCC 43300.
Experiment [6] relates to Enterococcus faecium ATCC 700221.
For experiment [7], the system named is Staphylococcus aureus ATCC 33591.
Experiment [8] has as its system Klebsiella pneumoniae WGLW2.
The subject of experiment [9] is Staphylococcus aureus ATCC 29231.
Experiment [10] relates to Acinetobacter baumannii ATCC 7978.
The test system of experiment [11] is Candida albicans ATCC 10231.
The subject of experiment [12] is Klebsiella aerogenes ATCC 13048.

Four molecules from DBAASP can be followed below.

The term MIC denotes the smallest concentration in the dilution series that meets the test's criterion for growth inhibition. Read a low MIC as greater potency.

Each structure is given as a SMILES string. In brackets after ≈: the same amount, converted by molar mass. A value given as a limit tells only on which side of the number the result lay.

As to `CC(C)C[C@H](NC(=O)[C@H](CC(C)C)NC(=O)[C@H](CCCCN)NC(=O)[C@@H](NC(=O)[C@@H](NC(=O)[C@H](CO)NC(=O)[C@H](CCCCN)NC(=O)[C@H](Cc1ccccc1)NC(=O)[C@@H](NC(=O)[C@@H](N)CCCCN)C(C)C)C(C)C)C(C)C)C(=O)N[C@@H](CCC(=O)O)C(=O)N[C@@H](CCCCN)C(=O)N[C@H](C(=O)N[C@H](C(=O)N[C@@H](CC(C)C)C(=O)N[C@@H](CCCCN)C(=O)N[C@@H](CCCCN)C(=O)N[C@@H](Cc1ccccc1)C(=O)N[C@@H](CO)C(=O)N[C@@H](CCCCN)C(N)=O)C(C)C)[C@@H](C)O` [KVFKSVVKLLEKTVLKKFSK], the MIC in experiment [1] is at least 32 µM; in experiment [2], 64 µM (≈ 150 µg/mL); in experiment [3] it was 64 µM (≈ 150 µg/mL); in experiment [4], 32 µM (≈ 75.2 µg/mL).

For `CC[C@H](C)[C@H](NC(=O)[C@H](Cc1cnc[nH]1)NC(=O)CNC(=O)CN)C(=O)N[C@@H](CCCN=C(N)N)C(=O)N[C@@H](CCCN=C(N)N)C(=O)N[C@H](C(=O)N[C@H](C(=O)N[C@@H](CCCN=C(N)N)C(=O)N[C@@H](CCCCN)C(=O)N[C@H](C(=O)N[C@H](C(=O)N[C@@H](Cc1cnc[nH]1)C(=O)N[C@H](C(=O)N[C@H](C(=O)N[C@@H](CCCCN)C(=O)N[C@@H](CCCCN)C(N)=O)[C@@H](C)CC)[C@@H](C)CC)[C@@H](C)CC)[C@@H](C)CC)[C@@H](C)CC)[C@@H](C)CC` [GGHIRRIIRKIIHIIKK], the MIC against Streptococcus pneumoniae is 8 µM (≈ 16.4 µg/mL); with Acinetobacter baumannii, 5.3 µM (≈ 10.9 µg/mL); in the experiment with Klebsiella pneumoniae, 16 µM (≈ 32.8 µg/mL); in [5] it was 16 µM (≈ 32.8 µg/mL); with Pseudomonas aeruginosa it was above 16 µM; in [3] it was above 16 µM. Moreover, the MIC with Enterococcus faecium came to 8 µM (≈ 16.4 µg/mL).

Consider `CC[C@H](C)[C@H](NC(=O)[C@H](CCCCN)NC(=O)[C@H](CCCCN)NC(=O)[C@H](CC(C)C)NC(=O)[C@@H](NC(=O)[C@H](CCCCN)NC(=O)[C@H](CCCCN)NC(=O)[C@@H](NC(=O)[C@@H](NC(=O)[C@H](CC(=O)O)NC(=O)[C@H](Cc1ccccc1)NC(=O)[C@H](CC(C)C)NC(=O)CN)C(C)C)[C@@H](C)CC)C(C)C)C(=O)NCC(=O)NCC(=O)N[C@@H](CC(C)C)C(N)=O` [GLFDVIKKVLKKIGGL], for which the minimal inhibitory concentration (MIC) in experiment [6] is 6.3 µM (≈ 10.9 µg/mL); in experiment [7], 12.5 µM (≈ 21.6 µg/mL); in experiment [3], 6.3 µM (≈ 10.9 µg/mL); in [4] it was 50 µM (≈ 86.4 µg/mL).

On to `CC[C@H](C)[C@H](NC(=O)[C@H](CCCCN)NC(=O)[C@H](CCCCN)NC(=O)[C@@H](N)CC(C)C)C(=O)NCC(=O)N[C@@H](CCCCN)C(=O)N[C@@H](CCCCN)C(=O)N[C@H](C(=O)N[C@@H](Cc1c[nH]c2ccccc12)C(=O)N[C@@H](CCCN=C(N)N)C(=O)N[C@H](C(=O)NCC(=O)N[C@@H](Cc1c[nH]c2ccccc12)C(=O)N[C@@H](CC(N)=O)C(=O)N[C@@H](Cc1c[nH]c2ccccc12)C(=O)N[C@@H](CCCN=C(N)N)C(=O)O)C(C)C)[C@@H](C)CC` [LKKIGKKIWRVGWNWR], for which the minimum inhibitory concentration (MIC) was at least 32.3 µM in [8]; at least 61.9 µM in experiment [9]; 16.1 µM (≈ 33.4 µg/mL) in experiment [10]; 61.9 µM (≈ 128 µg/mL) in experiment [11]; at least 61.9 µM in [12].
